Measured values as given in paper PMC12396409, “Screening and hit evaluation of a microbial metabolite library against the pathogenic Plasmodium falciparum and Toxoplasma gondii parasites” (International Journal for Parasitology: Drugs and Drug …, 2025).
Where a name gives a salt, the structure may show the parent alone. Read-outs that look alike come from different tables or passages of the source.

What was measured:
[1] = tested on: P. falciparum 3D7 parasites; assay: P. falciparum growth inhibition assay, 2-cycle (120 h treatment), delayed-death screen and dose-response; type: cell-based, Plasmodium falciparum; details: for activity at 2 µg/mL: Plasmodium falciparum
[2] = tested on: T. gondii RH strain (RH-Tub-eYFP) tachyzoites; assay: microbe, parasite or virus in culture; type: cell-based, Toxoplasma gondii; details: 72 h; for percent parasite growth at 2 µg/mL: Toxoplasma gondii
[3] = tested on: P. falciparum 3D7 parasites; assay: P. falciparum growth inhibition assay, 1-cycle (72 h treatment), SYBR DNA staining (library screen at 2 μg/mL and dose-response); type: cell-based, Plasmodium falciparum; details: for activity at 2 µg/mL: Plasmodium falciparum
[4] = P. falciparum 3D7, 120 h, library screen at 2 μg/mL, % growth, replicate 1
[5] = T. gondii RH, library screen at 2 μg/mL, % growth, replicate 1
[6] = T. gondii RH, library screen at 2 μg/mL, % growth, replicate 2
[7] = P. falciparum 3D7, 72 h, library screen at 2 μg/mL, % growth, replicate 1
[8] = P. falciparum 3D7, 72 h, library screen at 2 μg/mL, % growth, replicate 2
[9] = library screen at 2 μg/mL, 120 h, % growth, replicate 1
[10] = library screen at 2 μg/mL, 120 h, % growth, replicate 2
[11] = library screen at 2 μg/mL, % growth, replicate 1
[12] = library screen at 2 μg/mL, % growth, replicate 2
[13] = library screen at 2 μg/mL, 72 h, % growth, replicate 1
[14] = library screen at 2 μg/mL, 72 h, % growth, replicate 2
[15] = P. falciparum, 120 h, parasite screen 2 μg/mL, % growth, replicate 1
[16] = P. falciparum, 120 h, parasite screen 2 μg/mL, % growth, replicate 2
[17] = T. gondii, parasite screen 2 μg/mL, % growth, replicate 1
[18] = T. gondii, parasite screen 2 μg/mL, % growth, replicate 2
[19] = P. falciparum, 72 h, parasite screen 2 μg/mL, % growth, replicate 1
[20] = P. falciparum, 72 h, parasite screen 2 μg/mL, % growth, replicate 2
[21] = P. falciparum 3D7, 120 h, parasite screen at 2 μg/mL, % growth, replicate 1
[22] = P. falciparum 3D7, 120 h, parasite screen at 2 μg/mL, % growth, replicate 2
[23] = T. gondii, parasite screen at 2 μg/mL, % growth, replicate 1
[24] = T. gondii, parasite screen at 2 μg/mL, % growth, replicate 2
[25] = P. falciparum 3D7, 72 h, parasite screen at 2 μg/mL, % growth, replicate 1
[26] = P. falciparum 3D7, 72 h, parasite screen at 2 μg/mL, % growth, replicate 2

CC[C@H](C)C(=O)O[C@H]1C[C@@H](C)C=C2C=C[C@H](C)[C@H](CC[C@@H]3C[C@@H](O)CC(=O)O3)[C@H]21 [BIA-L1264]
Pf_120h_%Growth_Rep2 [1]: 93.18% | Pf_120h_%Growth_Rep1 [1, 4]: 89.66% | Tg_72h_%Growth_Rep1 [2, 5]: 3.18% | Tg_72h_%Growth_Rep2 [2, 6]: 2.54% | Pf_72h_%Growth_Rep1 [3, 7]: 70.29% | Pf_72h_%Growth_Rep2 [3, 8]: 102.36%

C/C=C/[C@@H]1C=C[C@@H]2C[C@H](C)CC[C@H]2[C@]1(C)/C(O)=C1/C(=O)[C@H](CO)N(C)C1=O [Equisetin]
Pf_120h_%Growth_Rep1 [1, 9]: 83.53% | Pf_120h_%Growth_Rep2 [1, 10]: 117.48% | Tg_72h_%Growth_Rep1 [2, 11]: 89.36% | Tg_72h_%Growth_Rep2 [2, 12]: 86.41% | Pf_72h_%Growth_Rep1 [3, 13]: 83.58% | Pf_72h_%Growth_Rep2 [3, 14]: 91.13%

C[C@@H]1CC[C@H]2C(C)(C)[C@H](O)CC[C@]2(C)[C@@]12Cc1c(O)cc3c(c1O2)CNC3=O [Stachybotrylactam]
Pf_120h_%Growth_Rep1 [1, 15]: 94.74% | Pf_120h_%Growth_Rep2 [1, 16]: 25.01% | Tg_72h_%Growth_Rep1 [2, 17]: 105.88% | Tg_72h_%Growth_Rep2 [2, 18]: 102.71% | Pf_72h_%Growth_Rep1 [3, 19]: 26.98% | Pf_72h_%Growth_Rep2 [3, 20]: 44.84%

Cc1c2c(c(O)c3c(O)cccc13)C(=O)[C@]1(O)C(=O)C(C(N)=O)=C(O)[C@@H](N(C)C)[C@@H]1C2 [Anhydrotetracycline hydrochloride]
activity at 2 µg/mL ([1]; 3D7, library screen at 2 μg/mL, 120 h, % growth, replicate 1, read-out: Pf_120h_%Growth_Rep1): 52.2% | activity at 2 µg/mL ([1]; 3D7, library screen at 2 μg/mL, 120 h, % growth, replicate 2, read-out: Pf_120h_%Growth_Rep2): 57% | percent parasite growth at 2 µg/mL ([2]; library screen at 2 μg/mL, % growth, replicate 1, read-out: Tg_72h_%Growth_Rep1): 89.6% | percent parasite growth at 2 µg/mL ([2]; library screen at 2 μg/mL, % growth, replicate 2, read-out: Tg_72h_%Growth_Rep2): 88.3% | activity at 2 µg/mL ([3]; 3D7, library screen at 2 μg/mL, 72 h, % growth, replicate 1, read-out: Pf_72h_%Growth_Rep1): 77.2% | activity at 2 µg/mL ([3]; 3D7, library screen at 2 μg/mL, 72 h, % growth, replicate 2, read-out: Pf_72h_%Growth_Rep2): 74%

Cc1cc(O)c(C=O)c2c1C(=O)Oc1c(CO)c(O)c3c(c1O2)C(O)OC3=O (centres unmarked) [Salazinic acid]
Pf_120h_%Growth_Rep1 [1, 15]: 77.56% | Pf_120h_%Growth_Rep2 [1, 16]: 74.04% | Tg_72h_%Growth_Rep1 [2, 17]: 117.03% | Tg_72h_%Growth_Rep2 [2, 18]: 97.23% | Pf_72h_%Growth_Rep1 [3, 19]: 86.18% | Pf_72h_%Growth_Rep2 [3, 20]: 54.69%

CC(=O)C1=C(O)[C@@H]2[C@H]3c4c[nH]c5cccc(c45)C[C@H]3C(C)(C)N2C1=O [Cyclopiazonic acid]
activity at 2 µg/mL ([1]; 3D7, 120 h, P. falciparum, 120 h, screen at 2 μg/mL, replicate 1, read-out: Pf_120h_%Growth_Rep1): 14% | activity at 2 µg/mL ([1]; 3D7, 120 h, P. falciparum, 120 h, screen at 2 μg/mL, replicate 2, read-out: Pf_120h_%Growth_Rep2): 9.35% | percent parasite growth at 2 µg/mL ([2]; T. gondii, screen at 2 μg/mL, replicate 1, read-out: Tg_72h_%Growth_Rep1): 0.36% | percent parasite growth at 2 µg/mL ([2]; T. gondii, screen at 2 μg/mL, replicate 2, read-out: Tg_72h_%Growth_Rep2): 3.22% | activity at 2 µg/mL ([3]; 3D7, 72 h, P. falciparum, 72 h, screen at 2 μg/mL, replicate 1, read-out: Pf_72h_%Growth_Rep1): 12.6% | activity at 2 µg/mL ([3]; 3D7, 72 h, P. falciparum, 72 h, screen at 2 μg/mL, replicate 2, read-out: Pf_72h_%Growth_Rep2): 7.26%

O=c1cc(CO)occ1O [BIA-K1696]
Pf_120h_%Growth_Rep1 [1, 4]: 76.01% | Pf_120h_%Growth_Rep2 ([1]; P. falciparum 3D7, 120 h, library screen at 2 μg/mL, % growth, replicate 2): 110.07% | Tg_72h_%Growth_Rep1 [2, 5]: 111.73% | Tg_72h_%Growth_Rep2 [2, 6]: 90.68% | Pf_72h_%Growth_Rep1 [3, 7]: 83.60% | Pf_72h_%Growth_Rep2 [3, 8]: 96.29%

COc1ccc2c(c1OC)C(=O)O[C@@H]2[C@H]1c2c(cc3c(c2OC)OCO3)CCN1C [BIA-N1938]
Pf_120h_%Growth_Rep1 [1, 21]: 166.83% | Pf_120h_%Growth_Rep2 [1, 22]: 79.12% | Tg_72h_%Growth_Rep1 [2, 23]: 85.42% | Tg_72h_%Growth_Rep2 [2, 24]: 102.99% | Pf_72h_%Growth_Rep1 [3, 25]: 84.86% | Pf_72h_%Growth_Rep2 [3, 26]: 78.38%

CC[C@]1(C)C[C@@H](OC(=O)CO)C2(C)[C@H](C)CCC3(CCC(=O)[C@H]32)[C@@H](C)[C@@H]1O (some centres unmarked) [Dihydropleuromutilin]
Pf_120h_%Growth_Rep1 [1, 9]: 42.82% | Pf_120h_%Growth_Rep2 [1, 10]: 51.71% | Tg_72h_%Growth_Rep1 [2, 11]: 80.68% | Tg_72h_%Growth_Rep2 [2, 12]: 63.68% | Screen (T. gondii) ([2]; library screen at 2 μg/mL, RH strain): I, I | Screen (P. falciparum) ([3]; library screen at 2 μg/mL, 3D7, 72 h, DD from the 120 h timepoint): I, I | Pf_72h_%Growth_Rep1 [3, 13]: 84.27% | Pf_72h_%Growth_Rep2 [3, 14]: 76.59%

CCC1OC2(CCC1C)CC1CC(CC=C(C)CC(C)C=CC=C3COC4C(O)C(C)=CC(C(=O)O1)C34O)O2 (centres unmarked) [BIA-M1052]
Pf_120h_%Growth_Rep1 [1, 21]: 32.48% | Pf_120h_%Growth_Rep2 [1, 22]: 50.00% | Tg_72h_%Growth_Rep1 [2, 23]: 117.80% | Tg_72h_%Growth_Rep2 [2, 24]: 80.70% | Pf_72h_%Growth_Rep1 [3, 25]: 59.66% | Pf_72h_%Growth_Rep2 [3, 26]: 59.04%
